# Reference: PubChem BioAssay (NCI)
#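 Compound exposure: 48 hours, 5 concentrations, 96-well plates. TGI: total growth inhibition.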
# Experiments:
# Test in all cases: DTP human tumour cell line panel, 48 h
# ACHN renal = test system: ACHN renal
# EKVX NSCLC = test system: EKVX NSCLC
# HCC-2998 colon = test system: HCC-2998 colon
# NCI-H23 lung = test system: NCI-H23 lung
# OVCAR-4 ovarian = test system: OVCAR-4 ovarian
# OVCAR-5 ovarian = test system: OVCAR-5 ovarian
# RPMI-8226 leukemia = test system: RPMI-8226 leukemia
# SF-268 CNS = test system: SF-268 CNS
# SF-539 CNS = test system: SF-539 CNS
# SK-MEL-28 melanoma = test system: SK-MEL-28 melanoma
# SW-620 colon = test system: SW-620 colon
# TK-10 renal = test system: TK-10 renal
# U251 CNS = test system: U251 CNS
# RXF 393 renal = test system: RXF 393 renal
# BT-549 breast = test system: BT-549 breast
# MDA-MB-231 breast = test system: MDA-MB-231 breast
# T-47D breast = test system: T-47D breast
# DU-145 prostate = test system: DU-145 prostate
# MCF7 breast = test system: MCF7 breast
# MDA-N = test system: MDA-N
SMILES,TGI (ACHN renal) [µM],TGI (EKVX NSCLC) [µM],TGI (HCC-2998 colon) [µM],TGI (NCI-H23 lung) [µM],TGI (OVCAR-4 ovarian) [µM],TGI (OVCAR-5 ovarian) [µM],TGI (RPMI-8226 leukemia) [µM],TGI (SF-268 CNS) [µM],TGI (SF-539 CNS) [µM],TGI (SK-MEL-28 melanoma) [µM],TGI (SW-620 colon) [µM],TGI (TK-10 renal) [µM],TGI (U251 CNS) [µM],TGI (RXF 393 renal) [µM],TGI (BT-549 breast) [µM],TGI (MDA-MB-231 breast) [µM],TGI (T-47D breast) [µM],TGI (DU-145 prostate) [µM],TGI (MCF7 breast) [µM],TGI (MDA-N) [µM]
CC(C)OP(=O)(OC(C)C)/C(=N/Nc1ccc([N+](=O)[O-])cc1)NNC(=O)c1ccccc1,> 100,> 100,70.4,79.3,99.2,> 100,> 100,> 100,> 100,91.3,> 100,> 100,76.7,–,–,–,–,–,–,–
Cc1cc(N(CCC#N)CCC#N)ccc1/C=C(\N=[N+]=[N-])C(=O)NC(=O)COc1ccccc1,> 100,> 100,> 100,> 100,> 100,> 100,> 100,> 100,> 100,> 100,> 100,> 100,> 100,97.5,–,–,–,–,–,–
Cc1cc2nc3c(C#N)c4c(c(Cl)n3c2cc1C)CCC4,55.9,> 100,–,62.6,> 100,77.8,51,53.3,49.5,88.9,39.3,70.6,30.4,32.1,49,35.1,> 100,–,–,–
CN(CCO)c1nc(=O)c2c(n1C1OC(CO)C(O)C(O)C1O)CCCC2 (centres undefined),> 100,> 100,> 100,> 100,–,> 100,> 100,> 100,> 100,> 100,> 100,> 100,> 100,> 100,–,–,–,–,–,–
O=C1/C(=C/c2cccc([N+](=O)[O-])c2)Cc2ccccc21,> 100,> 100,–,> 100,> 100,> 100,> 100,> 100,> 100,> 100,> 100,> 100,> 100,–,> 100,> 100,–,> 100,> 100,> 100
CCOC(=O)C1=C(C)C2C3C(=O)OC(=O)C3C1(C)C1C(=O)OC(=O)C21 (centres undefined),> 100,> 100,> 100,> 100,> 100,–,> 100,> 100,> 100,> 100,> 100,> 100,> 100,> 100,–,–,–,–,–,–
Oc1c(Cl)c(Cl)c(O)c(-c2cnc(-c3ncc(-c4c(O)c(Cl)c(Cl)c(O)c4Cl)s3)s2)c1Cl,51.5,61.5,> 100,39.9,> 100,36.4,–,55.3,81.7,75.6,> 100,70.1,48.7,43.8,–,42.8,> 100,> 100,52,–
CN(C)C1(N(C)C)Oc2c(c(=O)n(C)c(=O)n2C)C(c2ccc(F)cc2)C1(F)F (centres undefined),> 100,> 100,> 100,> 100,> 100,> 100,> 100,> 100,–,> 100,> 100,> 100,> 100,> 100,> 100,> 100,> 100,> 100,> 100,–
CCOC(=O)C(C(=O)OCC)S(C)(=O)=O,> 100,> 100,> 100,> 100,> 100,> 100,> 100,–,> 100,> 100,> 100,> 100,> 100,> 100,–,–,–,–,–,–
N#CCCN(c1ccc(C=Nc2ccc(C(=O)O)cc2)cc1)S(=O)(=O)c1ccccc1,> 100,> 100,> 100,> 100,> 100,> 100,> 100,> 100,> 100,> 100,> 100,> 100,> 100,> 100,–,–,–,–,–,–
COc1ccccc1NC(=O)C(=O)C(c1cnc2ccc([N+](=O)[O-])cc2n1)[N+](=O)[O-] (centres undefined),> 100,> 100,> 100,> 100,> 100,> 100,> 100,> 100,> 100,> 100,> 100,> 100,> 100,> 100,–,–,–,–,–,–
COc1cccc2c1C(=O)c1c(O)c3c(c(O)c1C2=O)CC(O)(C(C)=O)CC3OC1OC(COC(C)=O)C(OC(C)=O)C(OC(C)=O)C1OC(C)=O (centres undefined),87.6,27.4,–,–,53.3,96.6,–,55.1,39.7,> 100,> 100,61.8,27.5,7.25,–,63.7,> 100,> 100,> 100,–
CC1=NC(=O)CNN1C1=NNC2(C(=O)N1)c1ccccc1-c1ccccc12,> 100,> 100,> 100,> 100,> 100,> 100,–,> 100,> 100,> 100,> 100,> 100,> 100,> 100,> 100,> 100,–,> 100,> 100,> 100
O=C(Nc1ccccc1)c1cc2cc(CCl)ccc2oc1=O,31.1,> 100,> 100,> 100,> 100,> 100,> 100,> 100,–,> 100,> 100,> 100,> 100,> 100,> 100,> 100,> 100,> 100,82.9,–
CCCCCCCC(=O)OC(COC(=O)Cc1ccccc1)COC(=O)C(C)(C)C (centres undefined),> 100,–,> 100,> 100,> 100,> 100,> 100,> 100,–,> 100,> 100,> 100,> 100,–,–,–,–,–,–,–
O=C1CS(=O)c2ccccc2N1 (centres undefined),> 100,> 100,> 100,> 100,> 100,> 100,> 100,> 100,> 100,> 100,–,> 100,> 100,> 100,–,–,–,–,–,–
Cc1nc2c(n1Cc1ccc(F)cc1)C(=O)c1ccccc1C2=O,> 100,> 100,> 100,> 100,> 100,–,–,> 100,> 100,> 100,> 100,> 100,> 100,87.3,–,–,–,–,–,–
COc1ccc(OC)c(CCc2ccccc2CC(=O)O)c1,> 100,> 100,> 100,> 100,> 100,> 100,> 100,> 100,> 100,> 100,> 100,> 100,> 100,> 100,–,–,–,–,–,–
COc1cc2cnc3c4cc(O)ccc4ccc3c2cc1OC,> 100,> 100,> 100,> 100,> 100,> 100,> 100,> 100,> 100,> 100,> 100,> 100,> 100,> 100,–,–,–,–,–,–
O=C(OCC1CC(C2(O)CCCCC2)C(=O)O1)c1ccccc1 (centres undefined),> 100,> 100,> 100,> 100,> 100,> 100,> 100,> 100,> 100,> 100,> 100,> 100,> 100,> 100,> 100,> 100,–,> 100,> 100,–
O=C(N/N=C/c1cc(Cl)cc(Cl)c1[OH2+])c1ccncc1.O=S(=O)([O-])[O-].[Fe+2],28.1,29,> 100,51.3,–,49.8,5.98,> 100,36.4,> 100,> 100,56,–,82.1,–,–,–,–,–,–
CCCc1cn2c(/C=N/N=C(N)N)c(-c3ccc([N+](=O)[O-])cc3)nc2s1,2.88,3.62,2.03,2.82,–,3.14,2.76,–,9.84,4.66,–,3.93,1.39,–,–,3.51,2.71,–,–,–
O=C(O)C1Cc2[nH]c3ccccc3c2C2CCCC12 (centres undefined),> 100,> 100,> 100,> 100,> 100,> 100,–,> 100,> 100,> 100,> 100,> 100,> 100,–,–,–,–,–,–,–
N#C/C(=C\c1ccccc1F)C(=O)c1ccccc1,> 100,> 100,> 100,> 100,> 100,> 100,> 100,> 100,> 100,> 100,> 100,> 100,> 100,–,–,–,–,–,–,–
C=C1C(=O)O[C@H]2C1C[C@H](O)/C(C)=C/CC[C@@]1(C)O[C@H]21 (some centres undefined),22,40.3,27.5,37.5,30.2,33.9,31.5,74.5,–,38.7,21.6,29.9,> 100,31.9,–,38.4,–,49.5,27.6,30.3
CC(C)(Cl)C(Cl)CC/C(CBr)=C(\Cl)CBr (centres undefined),13.9,30.1,21.6,3.77,2.9,5.19,–,7.67,5.53,4.38,3.28,3.82,3.57,3.78,3.27,4.42,–,20.1,6.97,3.65
O=C(/C=C/c1ccc(Cl)cc1)c1nc2ccccc2[nH]1,> 100,83.3,25.8,> 100,71.3,> 100,5.18,> 100,50.6,> 100,53.1,70.5,–,–,> 100,> 100,38.9,33.1,9.04,–
O=C1Nc2n[nH]c(=S)n2NC12c1ccccc1-c1ccccc12,> 100,> 100,> 100,> 100,39.1,> 100,–,> 100,> 100,> 100,> 100,> 100,> 100,> 100,> 100,> 100,–,> 100,> 100,> 100
COc1cc2c(c(OC)c1)C(=O)C(=O)C(CC1(C)OCCCO1)=C2,17.9,29.6,30.1,24.3,18.9,37.7,> 100,30.1,32,28.6,3.23,17.2,28.7,8.71,–,–,–,–,–,–
O=C(O)CCC1(CCC(=O)O)CCCCCCCCC(CCC(=O)O)(CCC(=O)O)C(=O)C1=O,> 100,> 100,> 100,> 100,> 100,> 100,> 100,> 100,> 100,> 100,> 100,> 100,> 100,–,–,–,> 100,> 100,> 100,–
